Like-named read-outs stand apart in the source and are kept apart here.
Key:
[1] = tested on: asexual P. falciparum 3D7 parasites; experiment: Time of inhibition assays in 3D7 parasites; type: cell-based; conditions: Plasmodium falciparum, read at 72 hpi
Procedure: Synchronised parasites between 0.4 and 0.6% parasitemia at 4% hematocrit were plated in 384 well plates. To early ring stage plate (0−) rings, serially diluted drugs were added to the parasites in triplicate and incubated as plate 1. At 16 hpi, late ring stage parasites were exposed to the same drug concentrations previously diluted as in plate 1. This was repeated for 24 hpi plates. […] As described previously, the plates were thawed at RT for about an hour before they were SyBr green stained in lysis buffer.

[2] = tested on: PfCLK3 kinase domain (334–699); experiment: Intact protein mass spectrometry, covalent adduct formation; type: binding, Plasmodium falciparum; conditions: for Covalent Adduct Formation (%): pH 7.4, 4 h incubation
Excerpt: Covalent adduct formation was investigated by intact protein mass spectrometry.

Compound	EC50 ([1]; dosed at 16 hpi, read-out: pEC50 (3D7) 16 hpi (converted)) [nM]	EC50 ([1]; dosed at 24 hpi, read-out: pEC50 (3D7) 24 hpi (converted)) [nM]	EC50 ([1]; dosed at early-ring stage (0 h), read-out: pEC50 (3D7) 0-3 hpi (converted)) [nM]	covalent adduct formation (observed or not) ([2]; pH 7.4, 4 h)	Covalent Adduct Formation (%) [2] [%]	covalent adduct formation (observed or not) ([2]; pH raised to 9)
C[C@@H]1CC[C@H]2[C@@H](C)C(=O)O[C@@H]3O[C@@]4(C)CC[C@@H]1[C@]32OO4 [Artemisinin]	112	95.5	13.5			
C=CC(=O)N1CCN(Cc2ccc(OC)c(-c3cc4c(-c5ccc(C(=O)O)cc5)ccnc4[nH]3)c2)CC1 [Compound 2, 4-[2-(2-methoxy-5-{[4-(prop-2-enoyl)piperazin-1-yl]methyl}phenyl)-1H-pyrrolo[2,3-b]pyridin-4-yl]benzoic Acid]				no covalent adduct formation was observed	0	adduct formation was observed
COc1ccc(CN2CCN(C(=O)/C=C/CN(C)C)CC2)cc1-c1cc2c(-c3ccc(C(=O)O)cc3)ccnc2[nH]1 [Compound 3, 4-{2-[5-({4-[(2E)-4-(dimethylamino)but-2-enoyl]piperazin-1-yl}methyl)-2-methoxyphenyl]-1H-pyrrolo[2,3-b]pyridin-4-yl}benzoic Acid]				no adduct formation	0	
